Measurements: US12698264B2, “Synthesis of tigilanol tiglate and analogs thereof” (THE BOARD OF TRUSTEES OF THE LELAND STANFORD JUNIOR …, priority 2021, dated 2026)
Entries after “also recorded” stand apart in the source; their conditions may differ.

Experiments:
[1] = Incubation in neutral aqueous media; assay type: physicochemical; conditions: upon incubation in neutral aqueous media
PKC-βI-GFP = assay type: cell-based, Chinese hamster
Experimental: 2 mL of fresh F-12−/− was then added to each well, taking care not to disturb adherent cells. […] 250 μL of the Lipofectamine 2000 suspension was added to the DNA suspension and the solution incubated for 30 minutes at RT. 500 μL of the Lipofectamine/DNA suspension was added to the respective wells of the 6-well plate. The cells were then incubated at 37° C.

protein kinase C (PKC) = assay type: binding, human
Experimental: (§1) The protein kinase C (PKC) affinity of EBC-46 and EBC-46 analogs was performed via competition with ^3H-phorbol-12,13-dibutyrate (^3H-PDBu). This procedure entailed a glass-fiber filtration method to determine bound radioligand.
(§2) Preparation of PKC binding assay buffer: To a 50 mL polypropylene tube was added Tris-HCl (pH 7.4, 1 M, 1 mL), KCl (1 M, 2 mL), CaCl2 (0.1 M, 30 μL), and bovine serum albumin (BSA, 40 mg, Sigma-Aldrich). This mixture was diluted to 20 mL with deionized H2O and mixed gently. The buffer was stored on ice until use.
(§3) Preparation of phosphatidylserine (PS) vesicles: For every two assays, 3.5 mg phosphatidylserine (Avanti Polar Lipids, porcine, 25 mg/mL CHCl3 solution) was concentrated by removing chloroform under a stream of nitrogen followed by reduced pressure. […]
(§4) For each data point, 280 μL of “Master Mix” Solution and 20 μL of analog compound at a specified concentration were added to a polypropylene tube. […] Maximal ^3H-PDBu binding was assessed in triplicate by substitution of the analog compound with 20 μL DMSO. […] Scintillation vials were filled with Bio-Safe II scintillation fluid (5 mL) and measured for radioactivity using a Beckman LS 6000SC scintillation counter. […] The Kd of ^3H-PDBu for PKC isoforms was measured separately via saturation binding experiments under identical conditions.

PKC-βI = molecular target: T1, PKC-βI (Homo sapiens, UniProt P05771); assay type: binding
T1 construct: purchased Invitrogen
T1 sequence (P05771 whole entry): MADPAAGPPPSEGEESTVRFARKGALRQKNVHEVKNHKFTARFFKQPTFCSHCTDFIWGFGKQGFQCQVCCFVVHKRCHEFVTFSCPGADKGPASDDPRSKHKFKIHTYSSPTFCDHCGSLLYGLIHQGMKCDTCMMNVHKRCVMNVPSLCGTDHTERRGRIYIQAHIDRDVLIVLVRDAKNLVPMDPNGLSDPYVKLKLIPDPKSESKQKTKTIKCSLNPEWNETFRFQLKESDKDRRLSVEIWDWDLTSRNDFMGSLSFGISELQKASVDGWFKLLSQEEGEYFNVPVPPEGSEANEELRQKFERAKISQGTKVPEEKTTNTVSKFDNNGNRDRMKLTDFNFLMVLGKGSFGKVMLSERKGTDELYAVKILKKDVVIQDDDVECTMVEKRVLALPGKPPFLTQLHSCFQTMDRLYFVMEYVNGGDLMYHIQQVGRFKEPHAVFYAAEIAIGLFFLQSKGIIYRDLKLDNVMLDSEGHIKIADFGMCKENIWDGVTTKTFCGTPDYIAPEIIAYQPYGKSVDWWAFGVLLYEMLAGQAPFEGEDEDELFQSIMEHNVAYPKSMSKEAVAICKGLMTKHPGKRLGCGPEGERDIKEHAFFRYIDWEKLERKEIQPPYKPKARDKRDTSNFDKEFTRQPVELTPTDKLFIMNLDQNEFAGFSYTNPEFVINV
Experimental: as §1, §2, §3, §4

mast cell tumors = conditions: canines, cited from earlier work
PKC β = PKC β (Homo sapiens, UniProt P05771); assay: PKC binding of trigowiin A; conditions: type of constant not given; read-out: binds with PKC β
PKC β, sequence (P05771 whole entry, species assumed): as the sequence (P05771 whole entry) above

chikungunya virus (CHKV) = conditions: cited from earlier work
PKC δ = PKC δ (Homo sapiens, UniProt Q05655); assay: PKC binding of trigowiin A; conditions: type of constant not given; read-out: binds with PKC δ
PKC δ, sequence (Q05655 whole entry): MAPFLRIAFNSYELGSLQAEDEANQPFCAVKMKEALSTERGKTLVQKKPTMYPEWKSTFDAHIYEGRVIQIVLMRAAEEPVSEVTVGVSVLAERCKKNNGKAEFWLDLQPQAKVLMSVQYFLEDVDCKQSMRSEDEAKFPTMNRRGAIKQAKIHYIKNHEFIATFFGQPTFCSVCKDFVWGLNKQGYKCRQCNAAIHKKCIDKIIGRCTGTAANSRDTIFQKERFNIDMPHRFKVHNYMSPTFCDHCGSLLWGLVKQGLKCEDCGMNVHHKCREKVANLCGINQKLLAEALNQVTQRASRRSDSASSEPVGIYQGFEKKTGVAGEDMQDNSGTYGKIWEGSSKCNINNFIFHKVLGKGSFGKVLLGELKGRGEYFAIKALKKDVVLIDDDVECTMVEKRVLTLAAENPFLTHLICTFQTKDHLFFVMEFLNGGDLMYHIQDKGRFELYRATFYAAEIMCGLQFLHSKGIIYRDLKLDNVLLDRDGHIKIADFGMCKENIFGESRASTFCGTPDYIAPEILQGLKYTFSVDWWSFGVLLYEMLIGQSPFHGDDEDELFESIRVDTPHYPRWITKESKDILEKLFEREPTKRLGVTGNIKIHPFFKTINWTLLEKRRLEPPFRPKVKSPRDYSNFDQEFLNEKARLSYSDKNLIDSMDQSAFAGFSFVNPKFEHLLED

Compound | stability in neutral aqueous media [1] | translocation of PKC-βI-GFP (PKC-βI-GFP) | PKC binding affinity (protein kinase C (PKC)) | PKC isoform binding selectivity (PKC-βI) | remission (mast cell tumors; after a second dose) | complete response (mast cell tumors; after a single intratumoral injection) | PKC β binding affinity (PKC β) | antiviral activity against chikungunya virus (chikungunya virus (CHKV)) | PKC δ binding value (constant type not stated) (PKC δ)
C/C=C(\C)C(=O)O[C@@H]1[C@@H](C)[C@@]2(O)C([C@@H]3C(C)(C)[C@]13OC(=O)[C@@H](C)CC)[C@@H]1O[C@]1(CO)[C@@H](O)[C@]1(O)C(=O)C(C)=C[C@H]12 (stereo partly shown) [EBC-46, tigilanol tiglate] | spontaneously undergo Payne rearrangement to EBC-211 | modest translocation; also recorded: robust translocation | potent PKC affinity | isoform-selective binding | 88% | 75% |  |  | 
CC(=O)O[C@@H]1[C@@H](C)[C@@]2(O)C([C@@H]3C(C)(C)[C@]13OC(C)=O)[C@@H]1O[C@]1(CO)[C@@H](O)[C@]1(O)C(=O)C(C)=C[C@H]12 (stereo partly shown) [SUW401] |  |  | very low PKC binding affinity |  |  |  |  |  | 
trigowiin A |  |  |  |  |  |  | 19.3 nM | moderate antiviral activity | 20.3 nM
